Residues, ends and D or L forms follow the SMILES beside them.
What was measured:
intact white mice = test: Conditioned reflex of passive avoidance (CRPA) in intact mice; type: in vivo; conditions: for Trained animals (%): i.p. 60 min. before the training
Method: (§1) Nootropic activity of L-Ala-L-Glu-L-Asp-L-Pro tetrapeptide was studied with the application of the conditioned reflex of passive avoidance (CRPA) in the intact animals and under the conditions of amnestic impacts (electroconvulsive treatment and ethanol intoxication).
(§2) The experiments were carried out on male mice weighing 20 to 24 g. For each animal the period of stay in dark and lighted chamber departments was registered during 2 min. before the training. […] The animals were trained by means of applying an electric pain stimulus in the preferred dark department, which lasted until the animal left this department. L-Ala-L-Glu-L-Asp-L-Pro tetrapeptide was introduced intraperitoneally 60 min. before the training. Testing was performed in 2 and 24 hours after the training. The period the animal stayed in the dark and lighted chamber departments and the number of animals not entering the dark department (“educated” animals) were recorded.

cerebral cortex of rats = test: Intensity of lipid peroxide oxidation reactions and protein peroxidation in the cerebral cortex; type: in vivo; conditions: 1 μg intraperitoneally daily for 5 days
Method: The intensity of lipid peroxide oxidation (LPO) was assessed by the content of initial LPO products—diene conjugates and end products—Schiff bases. The degree of protein peroxidation was estimated by the content of carbonyl-derived amino acids in proteins after their interaction with 2,4-dinitrophenylhydrazine.
The study was conducted on 20 white unbred rats. 1 μg of the tetrapeptide was administered to the animals intraperitoneally daily for 5 days.
Moreover, the tetrapeptide application inhibited protein peroxidation as well as LPO (Table 1).

white unbred rats = test: Subacute toxicity, 90 days intramuscular; type: in vivo; conditions: intramuscular daily for 90 days, 1 μg/kg, 0.3 mg/kg, 3 mg/kg
Method: Subacute toxicity of L-Ala-L-Glu-L-Asp-L-Pro (SEQ ID NO:1) tetrapeptide was studied on 60 white unbred rats weighing 150 to 250 g. The experimental animals were administered the preparation intramuscularly once a day, daily for 90 days in doses 1 μg/kg, 0.3 mg/kg, 3 mg/kg in 0.5 ml of saline. The control animals were administered the similar amount of saline.
Within the entire period of study the animals were under daily supervision. Animals' behaviour, food and water consumption, the state of their hair integument and mucous membranes were registered. The animals were weighed once a week. Prior to and on the 30th, 60th and 90th days of the drug administration, the morphologic composition and properties of the peripheral blood in the animals were examined. Upon the study completion, biochemical and coagulologic blood indices were explored.

[1] = test system: patients with remote complications of craniocerebral injury; test: Clinical trial in patients with remote complications of craniocerebral injury (proof test, EEG α-index, subjective indices); type: in vivo, human
Method: The trial was conducted on 35 patients with remote complications of craniocerebral injury. They were divided into 3 groups: a control one (10 patients—standard treatment), a group under study (15 patients—standard treatment+1 μg of L-Ala-L-Glu-L-Asp-L-Pro tetrapeptide intramuscularly, daily for 10 days) and a comparison group (10 patients—standard treatment+Cerebrolysin). Remoteness of the suffered craniocerebral injury in the patients constituted 1 to 10 years. Decompensation of the posttraumatic process occurred in all the patients and was manifested in liquorodynamic disorder, neurocirculatory dystonia, cerebrofocal and psychopathologic syndromes.
Effect of the treatment with L-Ala-L-Glu-L-Asp-L-Pro tetrapeptide on the patients' attention was assessed by the proof test before and after the treatment. Significant increase in the number of reviewed symbols and decreased number of mistakes was noted, which indicated enhanced attention and raised stability of attention promoted by the tetrapeptide action (Table 5).
To assess the influence of L-Ala-L-Glu-L-Asp-L-Pro tetrapeptide on the cerebral bioelectric activity, a visual EEG (electroencephalography) test was carried out with its distribution on types and calculation of α-index before and after the treatment. EEG test was selectively performed in the patients from different groups showing most notable signs of disorder.
Before the treatment patients pathologic (III, IV and V) types of EEG prevailed in all the groups. The III-rd EEG type was characterised by the presence of so-called “non-dominant” curve, alongside with a low amplitude rate (no higher than 30–35 μV), irregular or even absent α-activity. The IV-th EEG type was marked by an extremely emphasised rhythm regularity and blurred zonal differences. The V-th EEG type was represented with an irregular slow activity (amplitude exceeding 35 μV), sharp waves and paroxysmal discharges.

[2] = test system: patients with vascular dementia; test: Preliminary clinical trial in patients with vascular dementia; type: in vivo, human; conditions: 3 μg intramuscularly once daily for 30 days
Method: Twelve patients aged 69 to 76 years (7 males and 5 females) suffering from hypertensive disease and atherosclerosis of cerebral vessels for a long time were enrolled in the study. Three of them had apoplexy in their medical histories. Initial data obtained in the similar patients before the treatment was used as control. L-Ala-L-Glu-L-Asp-L-Pro tetrapeptide was intramuscularly injected in a single dose of 3 μg once daily for 30 days.
Results were assessed after the treatment in comparison with the data obtained before the treatment. Basing on the examination results, changes in the patients' state were defined according to the following gradation: improvement (substantial, average or minor), deterioration, no changes.
At the pretreatment examination signs of intellectual-mnemic defect were found in all the patients: memory impairment, intellectual deterioration, aphasia, apraxia and agraphia disorders. In 9 patients signs of disorientation in time and place were found. The patients' emotional state was labile, manifested with periodical alternation of apathy and euphoria, complacency and anger aptness.

[3] = test system: mice subject to ethanol-induced amnestic impact; test: CRPA in mice subject to ethanol-induced amnestic impact; type: in vivo
Method: as §1, §2
Ethanol was administered to the mice orally for 13 days in the form of a 10% solution. Training was held twice: on the 14th day of ethanol administration and in 24 hours after the first training. L-Ala-L-Glu-L-Asp-L-Pro tetrapeptide was administered intraperitoneally 30 min. before the training. Testing was performed in 2 and 24 hours after the first and second training sessions.

rats = test: Serotonin metabolism in the brain, model of electrically induced pain stress; type: in vivo
Method: In an hour the content of serotonin and its metabolite, 5-oxyindoleacetic acid, was measured in the parietal and posterior frontal regions of the brain.
Compensatory in character, the stimulation of serotonin metabolism diminishes the emotional perception of a pain impact, Natural “drawback” of the said mechanism consists in a quick transition to the state of decompensation. In control (untreated stress) the level of serotonin lowered, while that of 5-oxyindoleacetic acid rose (metabolic depletion phase).

[4] = after treatment, added to conventional treatment
[5] = 1: in 2 hours after the training
[6] = 2: in 24 hours after the training
[7] = 3: in 2 hours after the repeated training
[8] = 4: in 24 hours after the repeated training
[9] = 5 μg/kg, post-stress introduction, measured in an hour

C[C@H](N)C(=O)N[C@@H](CCC(=O)O)C(=O)N[C@@H](CC(=O)O)C(=O)N1CCC[C@H]1C(=O)O [L-Ala-L-Glu-L-Asp-L-Pro tetrapeptide, L-Alanyl-L-Glutamyl-L-Aspartyl-L-Proline] (H-AEDP-OH)
Total period of stay in the dark chamber during 2 min. (intact white mice; 2 hours after training): 11.4 ± 5.2 s | Trained animals (%) (intact white mice; 2 hours after training): 86% | Total period of stay in the dark chamber during 2 min. (intact white mice; 24 hours after training): 26.6 ± 5.9 s | Trained animals (%) (intact white mice; 24 hours after training): 68% | Degree of protein peroxidation (cerebral cortex of rats): 4.81 ± 0.09 μmole/mg of protein | Diene conjugates (cerebral cortex of rats): 29.67 ± 1.93 nmole/g of the tissue | Schiff bases (cerebral cortex of rats): 245.2 ± 23.9 IU/g of the tissue | side effects, subacute toxicity (white unbred rats): absence of any side effects | Number of mistakes (proof test) [1, 4]: 6.3 ± 1.1 | Reviewed symbols (proof test) [1, 4]: 2519.6 ± 105.3 | α-index (EEG) [1, 4]: 47.9 ± 3.1 | cases with improvement of subjective indices (memory, mental agility, headaches, emotional evenness, will activity, recovery after a night repose) ([1]; before vs after treatment, 1 μg intramuscularly daily for 10 days): 71% | patients showing reverse development of the pathologic symptoms [2]: 74.8% | Total period of stay in the dark chamber [3, 5]: 47.8 ± 5.7 s | Trained animals (%) [3, 5]: 13% | Total period of stay in the dark chamber [3, 6]: 41.6 ± 5.8 s | Trained animals (%) [3, 6]: 31% | Total period of stay in the dark chamber [3, 7]: 13.7 ± 5.7 s | Trained animals (%) [3, 7]: 77% | Total period of stay in the dark chamber [3, 8]: 7.6 ± 5.7 s | Trained animals (%) [3, 8]: 86% | content of 5-oxyindoleacetic acid in the brain (rats; [9]): diminished | content of serotonin in the brain (rats; [9]): increased | levels of serotonin and its metabolite (rats; intact animals): did not induce any changes

Reference: US7189701B1, “Tetrapeptide stimulating functional activity of neurons pharmacological agent based thereon and method of use thereof” (Sankt-Petersburgskaya Obschestvennaya Organizatsiya …, priority 1999, dated 2007)
